One substance from patent US20030144225A1, “Antisense modulation of macrophage inflammatory protein 3-alpha expression” (priority 2001, published 2003) can be followed below.

Data set [1] relates to human macrophage inflammatory protein 3-alpha mRNA. Briefly: Antisense inhibition of human macrophage inflammatory protein 3-alpha mRNA levels, quantitative real-time PCR (Table 1 screen). The class given is cell-based. The following applies: averages from two experiments, oligonucleotide concentration not given. In general terms: Real-time PCR tracks product formation cycle by cycle.

The test system is the same in data set [2]. Briefly: Dose-response inhibition of cytokine-induced macrophage inflammatory protein 3-alpha mRNA expression in NHEK cells. The settings on record: 24 Hr after oligonucleotide treatment, percent inhibition of cytokine-induced control, averages from two experiments. The class given is cell-based.

Strand notation (5' to 3'): a small letter for the sugar, then the base; units joined by * are phosphorothioate-linked, units joined directly phosphodiester-linked; [ ] holds rarer units or linkages, { } end groups; capitals alone tell only the bases. e = 2'-O-(2-methoxyethyl) (MOE); [5mC] = 5-methylcytosine; d = 2'-deoxy (DNA)

Take “150693 (antisense eA*e[5mC]*eT*eA*eT*dG*dA*dT*dG*d[5mC]*dA*dA*dT*dA*dT*eG*eA*eA*eT*e[5mC]) [compound 150693]”: the “% INHIB (inhibition of human macrophage inflammatory protein 3-alpha mRNA levels)” value in data set [1] is recorded as 29%. Also, the “% Inhibition of cytokine induced macrophage inflammatory protein 3-alpha mRNA expression, 50 nM” value in data set [2] (50 nM oligonucleotide) worked out at 25%. In data set [2] (100 nM oligonucleotide), the “% Inhibition of cytokine induced macrophage inflammatory protein 3-alpha mRNA expression, 100 nM” value stood at 58%. Further, the “% Inhibition of cytokine induced macrophage inflammatory protein 3-alpha mRNA expression, 200 nM” value in data set [2] (200 nM oligonucleotide) is on record as 63%.
